# Experiments:
# [1] = tested on: mesenteric artery of a rabbit; assay: Relaxation of Mesenteric Artery (KCl-contracted spiral strip); parameters: species or system rabbit of Japanese local variety; conditions: Oryctolagus cuniculus; concentration of the hydrochloride attaining 50% of complete relaxation; rabbit mesenteric artery contracted with KCl; read-out: ED50 (the source's name)
# Procedure: A rabbit of Japanese local variety weighing about 3 kg was subjected to blood-letting to death. Then, abdomen of the rabbit was dissected to pick up a mesenteric artery. […] Thus, the shrinkage and relaxation of the artery was ready to be measured as a load on the transducer. To the organ bath, KCl was added in an amount which makes the artery shrink at a half length that in 15 to 20 mM aqueous solution. Then, hydrochlorides of the compounds of the present invention were added to the organ bath to observe relaxation effect on the artery.
# Effect of the compounds of the present invention on relaxation of mesenteric artery was examined according to the method as mentioned hereinbefore.
# [2] = tested on: male spontaneously hypertensive rats (SHR); assay: Reduction of Blood Pressure (systolic, tail plethysmographic method, oral); format: in vivo, rat (SHR, Wister Kyoto)
# Procedure: Male spontaneously hypertensive rats (SHR, Wister Kyoto) weighing 300 to 350 g were used. Systolic blood pressure was measured indirectly by the tail plethysmographic method in conscious SHR, just prior to, and 1, 2, 4 and 6 hours after oral administration of test drugs. Test drugs, dissolved in deionized water, were administered orally in a volume of 10 ml-solution/kg-rat. Reduction in systolic blood pressure (ΔP, mmHg) was calculated by substracting a systolic blood pressure after administration from that just prior to administration.
# Effect of the compounds of the present invention on reduction of blood pressure was examined according to the method as mentioned hereinbefore.
SMILES,EC50 [1] [µM],ΔPmax (maximally reduced blood pressure) ([2]; 50 mg/kg) [mmHg],ΔPmax (maximally reduced blood pressure) ([2]; 100 mg/kg) [mmHg]
"CC1CNCCCN1S(=O)(=O)c1cccc2cnccc12 (stereo not drawn) [Compound (2), 1-(5-isoquinolinesulfonyl)-2-methylhomopiperazine]",4,–,–
"CC1CNCCN(S(=O)(=O)c2cccc3cnccc23)C1 (stereo not drawn) [Compound (4), 1-(5-isoquinolinesulfonyl)-6-methylhomopiperazine]",1.6,–,–
"CC1NCCCN(S(=O)(=O)c2cccc3cnccc23)C1C (stereo not drawn) [Compound (5), 1-(5-isoquinolinesulfonyl)-2,3-dimethylhomopiperazine]",8,–,–
"CC1(C)CN(S(=O)(=O)c2cccc3cnccc23)CCCN1 [Compound (6), 1-(5-isoquinolinesulfonyl)-3,3-dimethylhomopiperazine]",10,–,–
"CCC1CN(S(=O)(=O)c2cccc3cnccc23)CCCN1 (stereo not drawn) [Compound (7), 1-(5-isoquinolinesulfonyl)-3-ethylhomopiperazine]",6,–,–
"CC(C)CC1CN(S(=O)(=O)c2cccc3cnccc23)CCCN1 (stereo not drawn) [Compound (9), 1-(5-isoquinolinesulfonyl)-3-isobutylhomopiperazine]",4,–,–
"O=S(=O)(c1cccc2cnccc12)N1CCCNC(c2ccccc2)C1 (stereo not drawn) [Compound (10), 1-(5-isoquinolinesulfonyl)-3-phenylhomopiperazine]",12,–,–
"CCC1CNCCN(S(=O)(=O)c2cccc3cnccc23)C1 (stereo not drawn) [Compound (12), 1-(5-isoquinolinesulfonyl)-6-ethylhomopiperazine]",3,–,–
"CCCC1CNCCN(S(=O)(=O)c2cccc3cnccc23)C1 (stereo not drawn) [Compound (13), 1-(5-isoquinolinesulfonyl)-6-propylhomopiperazine]",11,–,–
"CCCCCCC1CNCCN(S(=O)(=O)c2cccc3cnccc23)C1 (stereo not drawn) [Compound (16), 1-(5-isoquinolinesulfonyl)-6-hexylhomopiperazine]",12,–,–
"CN1CCCN(S(=O)(=O)c2cccc3cnccc23)CC1 [Compound (19), 1-(5-isoquinolinesulfonyl)-4-methylhomopiperazine]",8,–,–
"CCN1CCCN(S(=O)(=O)c2cccc3cnccc23)CC1 [Compound (20), 1-(5-isoquinolinesulfonyl)-4-ethylhomopiperazine]",11,–,–
"CCCCN1CCCN(S(=O)(=O)c2cccc3cnccc23)CC1 [Compound (22), 1-(5-isoquinolinesulfonyl)-4-butylhomopiperazine]",13,–,–
"CCCCCCN1CCCN(S(=O)(=O)c2cccc3cnccc23)CC1 [Compound (23), 1-(5-isoquinolinesulfonyl)-4-hexylhomopiperazine]",12,–,–
"NCCNS(=O)(=O)c1cccc2c(Cl)nccc12 [Compound (24), N-(2-aminoethyl)-1-chloro-5-isoquinolinesulfonamide]",5,70,–
"NCCCCNS(=O)(=O)c1cccc2c(Cl)nccc12 [Compound (25), N-(4-aminobuthyl)-1-chloro-5-isoquinolinesulfonamide]",7,–,50
"CC(CN)NS(=O)(=O)c1cccc2c(Cl)nccc12 (stereo not drawn) [Compound (26), N-(2-amino-1-methylethyl)-1-chloro-5-isoquinolinesulfonamide]",4,53,–
"CCCCC(CN)NS(=O)(=O)c1cccc2c(Cl)nccc12 (stereo not drawn) [Compound (27), N-(1-aminomethylpentyl)-1-chloro-5-isoquinolinesulfonamide]",4,45,–
"CC(C)C(N)CNS(=O)(=O)c1cccc2c(Cl)nccc12 (stereo not drawn) [Compound (28), N-(2-amino-3-methylbutyl)-1-chloro-5-isoquinolinesulfonamide]",10,58,–
"CCCCN(CCCC)CCCNS(=O)(=O)c1cccc2c(Cl)nccc12 [Compound (29), N-(3-di-n-butylaminopropyl)-1-chloro-5-isoquinolinesulfonamide]",11,43,–
"CN(CCNS(=O)(=O)c1cccc2c(Cl)nccc12)C1CCCCC1 [Compound (30), N-[2-(N-cyclohexyl-N-methylamino)ethyl]-1-chloro-5-isoquinolinesulfonamide]",13,54,–
"N=C(N)NCCCCNS(=O)(=O)c1cccc2c(Cl)nccc12 [Compound (32), N-(4-guanidinobutyl)-1-chloro-5-isoquinolinesulfonamide]",4,–,38

SMILES,EC50 [1] [µM],ΔPmax (maximally reduced blood pressure) ([2]; 50 mg/kg) [mmHg],ΔPmax (maximally reduced blood pressure) ([2]; 100 mg/kg) [mmHg]
"CC(CNC(=N)N)NS(=O)(=O)c1cccc2c(Cl)nccc12 (stereo not drawn) [Compound (33), N-(2-guanidino-1-methylethyl)-1-chloro-5-isoquinolinesulfonamide]",4,–,51
"CCCCC(CNC(=N)N)NS(=O)(=O)c1cccc2c(Cl)nccc12 (stereo not drawn) [Compound (34), N-(1-guanidinomethylpentyl)-1-chloro-5-isoquinolinesulfonamide]",8,–,45
"CC(C)C(CNS(=O)(=O)c1cccc2c(Cl)nccc12)NC(=N)N (stereo not drawn) [Compound (35), N-(2-guanidino-3-methylbutyl)-1-chloro-5-isoquinolinesulfonamide]",8,–,33
"CC(CNC(=N)N)CNS(=O)(=O)c1cccc2c(Cl)nccc12 (stereo not drawn) [Compound (36), N-(3-guanidino-2-methylpropyl)-1-chloro-5-isoquinolinesulfonamide]",7,–,48
"CC(CCNS(=O)(=O)c1cccc2c(Cl)nccc12)CNC(=N)N (stereo not drawn) [Compound (37), N-(4-guanidino-3-methylbutyl)-1-chloro-5-isoquinolinesulfonamide]",11,–,31
"CC1CN(S(=O)(=O)c2cccc3c(Cl)nccc23)CCN1 (stereo not drawn) [Compound (38), 1-(1-chloro-5-isoquinolinesulfonyl)-3-methylpiperazine]",17,–,45
"CCC1CN(S(=O)(=O)c2cccc3c(Cl)nccc23)CCN1 (stereo not drawn) [Compound (39), 1-(1-chloro-5-isoquinolinesulfonyl)-3-ethylpiperazine]",18,–,48
"CC(C)CC1CN(S(=O)(=O)c2cccc3c(Cl)nccc23)CCN1 (stereo not drawn) [Compound (40), 1-(1-chloro-5-isoquinolinesulfonyl)-3-isobutylpiperazine]",13,–,51
"CC1CN(S(=O)(=O)c2cccc3c(Cl)nccc23)C(C)CN1 (stereo not drawn) [Compound (41), 1-(1-chloro-5-isoquinolinesulfonyl)-2,5-dimethylpiperazine]",14,–,39
"CN1CCN(S(=O)(=O)c2cccc3c(Cl)nccc23)CC1 [Compound (42), 1-(1-chloro-5-isoquinolinesulfonyl)-4-methylpiperazine]",21,–,56
"N=C(N)N1CCN(S(=O)(=O)c2cccc3c(Cl)nccc23)CC1 [Compound (43), 1-(1-chloro-5-isoquinolinesulfonyl)-4-amidinopiperazine]",2,–,32
"N=C(N)N1CCCN(S(=O)(=O)c2cccc3c(Cl)nccc23)CC1 [Compound (44), 1-(1-chloro-5-isoquinolinesulfonyl)-4-amidinohomopiperazine]",4,–,25
"CC1CN(C(=N)N)CCN1S(=O)(=O)c1cccc2c(Cl)nccc12 (stereo not drawn) [Compound (45), 1-(1-chloro-5-isoquinolinesulfonyl)-4-amidino-2-methylpiperazine]",3,–,37
"CC1CN(S(=O)(=O)c2cccc3c(Cl)nccc23)C(C)CN1C(=N)N (stereo not drawn) [Compound (46), 1-(1-chloro-5-isoquinolinesulfonyl)-4-amidino-2,5-dimethylpiperazine]",5,–,41
"NCCNS(=O)(=O)c1cccc2c(O)nccc12 [Compound (47), N-(2-aminoethyl)-1-hydroxy-5-isoquinolinesulfonamide]",10,43,–
"CCNCCNS(=O)(=O)c1cccc2c(Cl)nccc12 [Compound (71), N-(2-ethylaminoethyl)-1-chloro-5-isoquinolinesulfonamide]",12,–,–
"CCCNCCNS(=O)(=O)c1cccc2c(Cl)nccc12 [Compound (72), N-(2-propylaminoethyl)-1-chloro-5-isoquinolinesulfonamide]",11,–,–
"CCCCNCCNS(=O)(=O)c1cccc2c(Cl)nccc12 [Compound (73), N-(2-butylaminoethyl)-1-chloro-5-isoquinolinesulfonamide]",8,–,–
"O=S(=O)(c1cccc2c(Cl)nccc12)N1CCNCC1 [Compound (75), 1-(1-chloro-5-isoquinolinesulfonyl)piperazine]",1,–,–
"NCCNS(=O)(=O)c1cccc2cnccc12 [compound 1, reference compound]",–,–,31
"CC1CN(S(=O)(=O)c2cccc3cnccc23)CCN1 (stereo not drawn) [compound 3, reference compound]",–,–,10

# — patent US4678783A, “Substituted isoquinolinesulfonyl compounds” (Asahi Kasei Kogyo Kabushiki Kaisha, priority 1984, dated 1987)
